Experimental findings from patent publication US8916702B2 (priority 2012, dated 2014) are described below.

This assay deals with HCV pseudoparticles (genotype 1a HCV E1 and E2 envelope, H77C isolate). Kind of assay: microbe, parasite or virus in culture. It is filed as cell-based. The conditions noted are these: Hepatitis C virus.
[1] abbreviates: Huh-7, 48 h, read-out: Activity (EC50 class), HCV pseudoparticle infection of Huh7 cells, luciferase 2 days after infection, EC50 expressed as class A/B.
[2] abbreviates: Huh-7, 48 h, read-out: Activity (EC50 class), HCV pseudoparticles, Huh7 cells, luciferase 2 days after infection, average of duplicates.
The mark [3] stands for this setting: Huh-7, read-out: Activity (EC50 class), HCV pseudoparticles (genotype 1a, H77C) in Huh7 cells, EC50 expressed as class A/B.
The mark [4] stands for this setting: Huh-7, 48 h, HCV pseudoparticles, Huh7 cells, luciferase 2 days after infection, average of duplicates.
The mark [5] stands for this setting: Huh-7, 48 h, HCV pseudoparticles (genotype 1a, H77C) in Huh7 cells, average of duplicate, luciferase 2 days after infection.

The structures appear in SMILES notation. Like-named read-outs stand apart in the source and are kept apart here.

On to `COc1ccccc1NC(=O)C(=O)NC[C@H](NC(=O)c1ccc(Nc2nc(NC3(c4ccc(Cl)cc4)CC3)nc(OCC(F)(F)F)n2)cc1)C(=O)O` [Compound 1364], for which, under setting [1], the EC50 fell in the range of 0.01 to 10 nM. Same read-out and setting: for `COC(=O)[C@H](CNC(=O)C(=O)NCc1ccc(OC)c(OC)c1)NC(=O)c1ccc(Nc2nc(NC3(c4ccc(Cl)cc4)CC3)nc(OCC(F)(F)F)n2)cc1` [Compound 1152] the value was 0.01 to 10 nM. As to `CC(C)(CNC(=O)C(=O)Nc1ccc(-c2ccncc2)cc1)CNC(=O)c1ccc(Nc2nc(NC3(c4ccc(Cl)cc4)CC3)nc(OCC(F)(F)F)n2)cc1` [Compound 3796], the EC50 under setting [2] was in the range of 0.01 to 10 nM. Turning to `CCOc1ccc(NC(=O)C(=O)NC[C@H](NC(=O)c2ccc(Nc3nc(NC4(c5ccc(Cl)cc5)CC4)nc(OCC(F)(F)F)n3)cc2)C(=O)O)cc1` [Compound 3293], the concentration for a half-maximal effect (EC50) under setting [3] lay within 0.01 to 10 nM. In the case of `COc1ccc(NC(=O)C(=O)NCC(C)(C)CNC(=O)c2ccc(Nc3nc(NC4(c5ccc(Cl)cc5)CC4)nc(OCC(F)(F)F)n3)cc2)cn1` [Compound 3257], the EC50 under setting [3] was 0.01 to 10 nM. On to `COC(=O)[C@H](CCNC(=O)C(=O)NCC1CC1(Cl)Cl)NC(=O)c1ccc(Nc2nc(NC3(c4ccc(Cl)cc4)CC3)nc(OCC(F)(F)F)n2)cc1` (some centres unmarked) [Compound 1372], for which the 50% effective concentration (EC50) under setting [1] was in the range of 0.01 to 10 nM. Same read-out and setting: the same measure for `COC(=O)[C@H](CNC(=O)C(=O)NCC(C)c1ccccc1)NC(=O)c1ccc(Nc2nc(NC3(c4ccc(Cl)cc4)CC3)nc(OCC(F)(F)F)n2)cc1` (some centres unmarked) [Compound 1283]: 0.01 to 10 nM. For `CC(C)(CNC(=O)C(=O)Nc1ccc(Cl)cc1)CNC(=O)c1ccc(Nc2nc(NC3(c4ccc(Cl)cc4)CC3)nc(OCC(F)(F)F)n2)cc1` [Compound 1559], the EC50 under setting [1] was 0.01 to 10 nM. For `CC(C)(C)OC(=O)N1CCCC(CNC(=O)C(=O)NCC[C@H](NC(=O)c2ccc(Nc3nc(NC4(c5ccc(Cl)cc5)CC4)nc(OCC(F)(F)F)n3)cc2)C(=O)O)C1` (some centres unmarked) [Compound 1204], under setting [1], the EC50 was 0.01 to 10 nM. For `COC(=O)[C@H](CCNC(=O)C(=O)Nc1ccc(Cn2ccnc2)cc1)NC(=O)c1ccc(Nc2nc(NC3(c4ccc(Cl)cc4)CC3)nc(OCC(F)(F)F)n2)cc1` [Compound 3319], under setting [3], the EC50 lay in the range of 0.01 to 10 nM. Consider `CN(CCCN(C)C(=O)c1ccc(Nc2nc(NC3(c4ccc(Cl)cc4)CC3)nc(OCC(F)(F)F)n2)cc1)C(=O)C(=O)NC1CCCCC1` [Compound 3429], for which, under setting [3], the concentration for a half-maximal effect (EC50) lay within 0.01 to 10 nM. `COC(=O)[C@@H](CCNC(=O)C(=O)NCC1(CN2CCN(C)CC2)CC1)NC(=O)c1ccc(Nc2nc(NC3(c4ccc(Cl)cc4)CC3)nc(OCC(F)(F)F)n2)cc1` [Compound 1388]: the EC50 under setting [1] fell in the range of 0.01 to 10 nM.

On to `CC(C)(CNC(=O)C(=O)Nc1ccc(CC(=O)N2CCCC2)cc1)CNC(=O)c1ccc(Nc2nc(NC3(c4ccc(Cl)cc4)CC3)nc(OCC(F)(F)F)n2)cc1` [Compound 1592], for which the EC50 under setting [1] lay within 0.01 to 10 nM. Consider `CC(C)(CNC(=O)C(N)=O)CNC(=O)c1c(F)cc(Nc2nc(NC3(c4ccc(Cl)cc4)CC3)nc(OCC(F)(F)F)n2)cc1F` [Compound 3812], for which the EC50 is 0.5 nM under setting [4] and 0.01 to 10 nM under setting [2].

As to `O=C(NCc1cccnc1)C(=O)NC[C@@H](NC(=O)c1ccc(Nc2nc(NC3(c4ccc(Cl)cc4)CC3)nc(OCC(F)(F)F)n2)cc1)C(=O)O` [Compound 1043], under setting [1], the EC50 was 0.01 to 10 nM. Take `O=C(Nc1ccc(Oc2nn[nH]n2)cc1)C(=O)NC1CCCC1CNC(=O)c1ccc(Nc2nc(NC3(c4ccc(Cl)cc4)CC3)nc(OCC(F)(F)F)n2)cc1` (centres unmarked) [Compound 1494]: the EC50 under setting [1] was in the range of 0.01 to 10 nM. On to `O=C(NCC1CCOCC1)C(=O)NC[C@H](NC(=O)c1ccc(Nc2nc(NC3(c4ccc(Cl)cc4)CC3)nc(OCC(F)(F)F)n2)cc1)C(=O)O` [Compound 1477], for which the half-maximal effective concentration (EC50) under setting [1] was in the range of 0.01 to 10 nM. In the case of `COC(=O)[C@H](CNC(=O)C(=O)Nc1ccc(Oc2cccnc2)nc1)NC(=O)c1ccc(Nc2nc(NC3(c4ccc(Cl)cc4)CC3)nc(OCC(F)(F)F)n2)cc1` [Compound 3699], under setting [2], the concentration for a half-maximal effect (EC50) was 0.01 to 10 nM. In the case of `COC(=O)[C@H](CCNC(=O)C(=O)NCC1CCCCC1)NC(=O)c1ccc(Nc2nc(NC3(c4ccc(Cl)cc4)CC3)nc(OCC(F)(F)F)n2)cc1` [Compound 1143], the EC50 under setting [1] lay in the range of 0.01 to 10 nM.

As to `O=C(NC1CCCCC1)C(=O)N(CCO)CCCNC(=O)c1ccc(Nc2nc(NC3(c4ccc(Cl)cc4)CC3)nc(OCC(F)(F)F)n2)cc1` [Compound 3510], under setting [3], the EC50 fell in the range of 0.01 to 10 nM. Regarding `COC(=O)[C@H](CCNC(=O)C(=O)Nc1ccc(F)cc1F)NC(=O)c1ccc(Nc2nc(NC3(c4ccc(Cl)cc4)CC3)nc(OCC(F)(F)F)n2)cc1` [Compound 1501], under setting [1], the EC50 lay in the range of 0.01 to 10 nM.

`CC(C)(CNC(=O)C(=O)Nc1ccc(F)c(Cl)c1)CNC(=O)c1ccc(Nc2nc(NC3(c4ccc(Cl)cc4)CC3)nc(OCC(F)(F)F)n2)cc1` [Compound 3059]: the EC50 under setting [3] is 0.01 to 10 nM.

On to `CCOC(=O)[C@H](CCNC(=O)C(=O)NCC1CC1)NC(=O)c1ccc(Nc2nc(NC3(c4ccc(Cl)cc4)CC3)nc(OCC(F)(F)F)n2)cc1` [Compound 1369], for which the EC50 under setting [1] was in the range of 0.01 to 10 nM. For `COC(=O)[C@H](CCNC(=O)C(=O)Nc1ccc(C(N)=O)cc1)NC(=O)c1ccc(Nc2nc(NC3(c4ccc(Cl)cc4)CC3)nc(OCC(F)(F)F)n2)cc1` [Compound 3116], the EC50 under setting [3] is 0.01 to 10 nM. For the compound `CC(C)(CNC(=O)C(=O)N1CCCCC1)CNC(=O)c1ccc(Nc2nc(NC3(c4ccc(Cl)cc4)CC3)nc(OCC(F)(F)F)n2)cc1` [Compound 1550], the EC50 under setting [1] fell in the range of 0.01 to 10 nM. Same read-out and setting: the same measure for `CC(C)(C)OC(=O)NC1CCC(NC(=O)C(=O)NC[C@H](NC(=O)c2ccc(Nc3nc(NC4(c5ccc(Cl)cc5)CC4)nc(OCC(F)(F)F)n3)cc2)C(=O)O)CC1` (some centres unmarked) [Compound 1085]: 0.01 to 10 nM. With `COC(=O)[C@H](CNC(=O)C(=O)Nc1cccc(-n2ccnc2)c1)NC(=O)c1ccc(Nc2nc(NC3(c4ccc(Cl)cc4)CC3)nc(OCC(F)(F)F)n2)cc1` [Compound 3734], the half-maximal effective concentration (EC50) under setting [2] lay in the range of 0.01 to 10 nM. Consider `CC1(C)[C@H]2CCC(CNC(=O)C(=O)NC[C@H](NC(=O)c3ccc(Nc4nc(NC5(c6ccc(Cl)cc6)CC5)nc(OCC(F)(F)F)n4)cc3)C(=O)O)[C@@H]1C2` (some centres unmarked) [Compound 1473], for which the concentration for a half-maximal effect (EC50) under setting [1] lay within 0.01 to 10 nM. As for `O=C(NC/C(=N/C(=O)c1ccc(Nc2nc(NC3(c4ccc(Cl)cc4)CC3)nc(OCC(F)(F)F)n2)cc1)C(=O)O)C(=O)Nc1ccc(NCc2ccccc2)cc1` [Compound 3158], the EC50 under setting [3] was in the range of 0.01 to 10 nM. `COC(=O)[C@H](CCNC(=O)C(=O)Nc1ccc(-c2cc[nH]n2)cc1)NC(=O)c1ccc(Nc2nc(NC3(c4ccc(Cl)cc4)CC3)nc(OCC(F)(F)F)n2)cc1` [Compound 3310]: the EC50 by setting is: under setting [5], 2.15 nM; under setting [3], 0.01 to 10 nM. On to `CC(C)(CNC(=O)C(=O)Nc1ccc(C(=O)c2ccccc2)cc1)CNC(=O)c1ccc(Nc2nc(NC3(c4ccc(Cl)cc4)CC3)nc(OCC(F)(F)F)n2)cc1` [Compound 3142], for which the concentration for a half-maximal effect (EC50) under setting [3] was 0.01 to 10 nM. Take `CC(=O)c1ccc(NC(=O)C(=O)NCC(C)(C)CNC(=O)c2ccc(Nc3nc(NC4(c5ccc(Cl)cc5)CC4)nc(OCC(F)(F)F)n3)cc2)cc1` [Compound 1603]: the concentration giving a half-maximal response (EC50) is, setting by setting: (Huh-7, 48 h, HCV pseudoparticle infection of Huh7 cells, luciferase 2 days after infection, average of duplicates) 0.04 nM; under setting [1], 0.01 to 10 nM. `COC(=O)[C@H](CCNC(=O)C(=O)NC(C)(C)Cc1ccc(F)cc1)NC(=O)c1ccc(Nc2nc(NC3(c4ccc(Cl)cc4)CC3)nc(OCC(F)(F)F)n2)cc1` [Compound 1319]: the EC50 under setting [1] fell in the range of 0.01 to 10 nM.

Turning to `CC(C)(CNC(=O)C(=O)Nc1ccccc1Oc1ccccc1)CNC(=O)c1ccc(Nc2nc(NC3(c4ccc(Cl)cc4)CC3)nc(OCC(F)(F)F)n2)cc1` [Compound 3139], under setting [3], the half-maximal effective concentration (EC50) was 0.01 to 10 nM. Still for that read-out and setting: the same measure for `CCOc1ccc(NC(=O)C(=O)NCC[C@H](NC(=O)c2ccc(Nc3nc(NC4(c5ccc(Cl)cc5)CC4)nc(OCC(F)(F)F)n3)cc2)C(=O)OC)cc1` [Compound 3327]: 0.01 to 10 nM. `COC(=O)[C@H](CNC(=O)C(=O)Nc1cccc(-c2noc(C)n2)c1)NC(=O)c1ccc(Nc2nc(NC3(c4ccc(Cl)cc4)CC3)nc(OCC(F)(F)F)n2)cc1` [Compound 3730]: the concentration for a half-maximal effect (EC50) under setting [4] was 0.6 nM and the EC50 under setting [2] was 0.01 to 10 nM. Turning to `O=C(NCC[C@H](NC(=O)c1ccc(Nc2nc(NC3(c4ccc(Cl)cc4)CC3)nc(OCC(F)(F)F)n2)cc1)C(=O)O)C(=O)Nc1ccncc1` [Compound 1278], the EC50 under setting [1] is 0.01 to 10 nM. Take `COC(=O)[C@H](CNC(=O)C(=O)Nc1ccc(-n2cncn2)cc1)NC(=O)c1ccc(Nc2nc(NC3(c4ccc(Cl)cc4)CC3)nc(OCC(F)(F)F)n2)cc1` [Compound 3101]: under setting [3], the EC50 was 0.01 to 10 nM. In the case of `Cc1ccc(NC(=O)C(=O)NCC(C)(C)CNC(=O)c2ccc(Nc3nc(NC4(c5ccc(Cl)cc5)CC4)nc(OCc4ccc(Cl)cc4)n3)cc2)cc1` [Compound 3849], the EC50 under setting [2] was 0.01 to 10 nM. Consider `CC(C)(CNC(=O)C(=O)N1CCc2ccccc2C1)CNC(=O)c1ccc(Nc2nc(NC3(c4ccc(Cl)cc4)CC3)nc(OCC(F)(F)F)n2)cc1` [Compound 1545], for which the EC50 under setting [1] was in the range of 0.01 to 10 nM. For `COC(=O)/C(CCNC(=O)C(=O)Nc1ccc(C)nc1)=N\C(=O)c1ccc(Nc2nc(NC3(c4ccc(Cl)cc4)CC3)nc(OCC(F)(F)F)n2)cc1` [Compound 3590], the EC50 by setting is: under setting [5], 0.16 nM; under setting [3], 0.01 to 10 nM. As to `O=C(NCCCNC(=O)c1ccc(Nc2nc(NC3(c4ccc(Cl)cc4)CC3)nc(OCC(F)(F)F)n2)cc1)C(=O)Nc1ccc(F)cc1` [Compound 3360], the EC50 under setting [3] was in the range of 0.01 to 10 nM. Same read-out and setting: the same measure for `O=C(NC/C(=N/C(=O)c1ccc(Nc2nc(NC3(c4ccc(Cl)cc4)CC3)nc(OCC(F)(F)F)n2)cc1)C(=O)O)C(=O)Nc1ccc(-c2nnco2)cc1` [Compound 3161]: 0.01 to 10 nM. Turning to `CCc1ccc(NC(=O)C(=O)NC[C@H](NC(=O)c2ccc(Nc3nc(NC4(c5ccc(Cl)cc5)CC4)nc(OCC(F)(F)F)n3)cc2)C(=O)O)cc1` [Compound 3296], the EC50 is 0.24 nM under setting [5] and 0.01 to 10 nM under setting [3].
